Laboratory results taken from the supplement of paper PMC13380429.
± gives the standard deviation of the averaged measurements.

Experiments:
Conditions in all cases: 72 h
Caco-2 [1] = experiment: cell viability relative to DMSO; higher = less toxic
Calu-3 [2] = experiment: as above
HepG2 [3] = experiment: as above
U2OS [4] = experiment: as above
Vero E6 [5] = experiment: as above
Caco-2 [6] = experiment: relative viability EC50 (midpoint between 100% and the lowest measured viability); higher = less toxic
Calu-3 [7] = experiment: as above
HepG2 [8] = experiment: as above
U2OS [9] = experiment: as above
Vero E6 [10] = experiment: as above
Caco-2 [11] = experiment: drug sensitivity score (DSS) for viability; higher = more toxic; extreme values may be limits of the assay
Calu-3 [12] = experiment: as above
HepG2 [13] = experiment: as above
U2OS [14] = experiment: as above
Vero E6 [15] = experiment: as above

SMILES | cell viability (Caco-2 [1]; 1 nM) [%] | cell viability (Caco-2 [1]; 10 nM) [%] | cell viability (Caco-2 [1]; 100 nM) [%] | cell viability (Caco-2 [1]; 1000 nM) [%] | cell viability (Caco-2 [1]; 10000 nM) [%] | cell viability (Calu-3 [2]; 1 nM) [%] | cell viability (Calu-3 [2]; 10 nM) [%] | cell viability (Calu-3 [2]; 100 nM) [%] | cell viability (Calu-3 [2]; 1000 nM) [%] | cell viability (Calu-3 [2]; 10000 nM) [%] | cell viability (HepG2 [3]; 1 nM) [%] | cell viability (HepG2 [3]; 10 nM) [%] | cell viability (HepG2 [3]; 100 nM) [%] | cell viability (HepG2 [3]; 1000 nM) [%] | cell viability (HepG2 [3]; 10000 nM) [%] | cell viability (U2OS [4]; 1 nM) [%] | cell viability (U2OS [4]; 10 nM) [%] | cell viability (U2OS [4]; 100 nM) [%] | cell viability (U2OS [4]; 1000 nM) [%] | cell viability (U2OS [4]; 10000 nM) [%] | cell viability (Vero E6 [5]; 1 nM) [%] | cell viability (Vero E6 [5]; 10 nM) [%] | cell viability (Vero E6 [5]; 100 nM) [%] | cell viability (Vero E6 [5]; 1000 nM) [%] | cell viability (Vero E6 [5]; 10000 nM) [%] | relative viability EC50 (Caco-2 [6]) [µM] | relative viability EC50 (Calu-3 [7]) [µM] | relative viability EC50 (HepG2 [8]) [µM] | relative viability EC50 (U2OS [9]) [µM] | relative viability EC50 (Vero E6 [10]) [µM] | drug sensitivity score (Caco-2 [11]) | drug sensitivity score (Calu-3 [12]) | drug sensitivity score (HepG2 [13]) | drug sensitivity score (U2OS [14]) | drug sensitivity score (Vero E6 [15])
CC(=O)OCC(=O)[C@@]12OC3(CCCC3)O[C@@H]1C[C@H]1[C@@H]3CCC4=CC(=O)C=C[C@]4(C)[C@@]3(F)[C@@H](O)C[C@@]12C [amcinonide] | 104 | 105 | 94.6 | 107 | 104 | 101 | 103 | 93.9 | 89.3 | 97 | 108 | 97.1 | 98.2 | 91.8 | 99.8 | 101 | 101 | 92.6 | 97.2 | 91.5 | 102 | 96.2 | 99.6 | 95.6 | 95.4 | > 10 | > 10 | > 10 | > 10 | > 10 | 0 | 0.3 | 0 | 0 | 0
Nc1ccncc1N [amifampridine] | 99.2 | 97.3 | 91 | 91 | 103 | 106 | 96.9 | 96 | 98.8 | 98.1 | 98.1 | 96.4 | 98 | 93.7 | 89.6 | 97.7 | 95.5 | 96.1 | 95 | 96.9 | 95.7 | 100 | 98.2 | 97.7 | 91.8 | > 10 | > 10 | > 10 | > 10 | > 10 | 0 | 0 | 0 | 0 | 0
NCCCCCC(=O)O [aminocaproic-acid] | 119 | 99.3 | 102 | 105 | 109 | 105 | 90.6 | 96.9 | 91.3 | 99.4 | 81.2 | 95 | 96.6 | 94.1 | 90.9 | 104 | 97.1 | 101 | 95 | 98.5 | 102 | 106 | 98.6 | 109 | 92.6 | > 10 | > 10 | > 10 | > 10 | > 10 | 0 | 0 | 0 | 0 | 0
O=C(O)C(F)(F)C(F)(F)C(F)(F)C(F)(F)C(F)(F)C(F)(F)C(F)(F)F [ammonium-perfluorocaprylate] | 96 | 96 | 107 | 95.4 | 103 | 98 | 110 | 100 | 93.6 | 99.3 | 113 | 105 | 97.3 | 99.5 | 102 | 104 | 95.2 | 101 | 92.7 | 104 | 98.2 | 99.5 | 99.8 | 100 | 96 | > 10 | > 10 | > 10 | > 10 | > 10 | 0 | 0 | 0 | 0 | 0
CC(=O)Nc1ccc(OC[C@](C)(O)C(=O)Nc2ccc([N+](=O)[O-])c(C(F)(F)F)c2)cc1 [andarine] | 97.4 | 98.6 | 87.3 | 93.5 | 99.2 | 93.1 | 98.1 | 90.2 | 105 | 90.3 | 105 | 98.8 | 100 | 103 | 99 | 97.9 | 102 | 94.8 | 98 | 93.9 | 101 | 104 | 101 | 96.3 | 100 | > 10 | > 10 | > 10 | > 10 | > 10 | 0 | 0 | 0 | 0 | 0
Nc1ccc([As](=O)(O)O)cc1 [arsanilic-acid] | 108 | 81.2 | 86.6 | 81.9 | 95.8 | 114 | 87.2 | 101 | 98.1 | 97.7 | 110 | 103 | 98.2 | 99.3 | 104 | 107 | 107 | 104 | 97.5 | 103 | 99.5 | 98.8 | 95.4 | 97.1 | 96.4 | > 10 | > 10 | > 10 | > 10 | > 10 | 6 | 0 | 0 | 0 | 0
O=[N+]([O-])c1ncc[nH]1 [azomycin-(2-nitroimidazole)] | 109 | 104 | 107 | 87 | 108 | 100 | 102 | 94 | 92.5 | 99.8 | 104 | 104 | 102 | 107 | 93.8 | 89.5 | 88.7 | 94.9 | 98.6 | 101 | 99.6 | 102 | 101 | 100 | 100 | > 10 | > 10 | > 10 | > 10 | > 10 | 0 | 0 | 0 | 0 | 0
NCC(CC(=O)O)c1ccc(Cl)cc1 (stereo not given) [baclofen] | 98.6 ± 7.2 | 99.5 ± 3.1 | 95 ± 7.8 | 97.5 ± 3.8 | 100 ± 5 | 98.9 ± 7.8 | 104 ± 5.4 | 98.6 ± 2 | 94.8 ± 4.7 | 104 ± 4.7 | 101 ± 2.9 | 104 ± 9.8 | 106.2 ± 0.99 | 102 ± 7.6 | 99.8 ± 1.3 | 96.8 ± 1.1 | 101 ± 2.5 | 95.5 ± 2.3 | 101 ± 5.4 | 98.8 ± 8 | 97.75 ± 0.071 | 96.8 ± 1.7 | 99.7 ± 3.2 | 96.8 ± 3.8 | 104 ± 6.9 | > 10 | > 10 | > 10 | > 10 | > 10 | 0 | 0 | 0 | 0 | 0
NS(=O)(=O)c1cc2c(cc1Cl)N=C(CSCc1ccccc1)NS2(=O)=O [benzthiazide] | 103 | 101 | 93.2 | 96.2 | 80.7 | 84.5 | 104 | 101 | 106 | 101 | 105 | 86 | 101 | 94.3 | 89.7 | 100 | 98.8 | 94.6 | 98.4 | 96 | 102 | 98.5 | 98.4 | 101 | 98.9 | > 10 | > 10 | > 10 | > 10 | > 10 | 0.9 | 0 | 0 | 0 | 0
COc1c2ccoc2cc2oc(=O)ccc12 [bergapten] | 82.4 | 94.1 | 94.3 | 99.4 | 88.3 | 105 | 119 | 108 | 103 | 99 | 95.7 | 85.8 | 90 | 102 | 96.3 | 95.4 | 106 | 93.2 | 97.4 | 102 | 103 | 105 | 99.8 | 98.4 | 82 | > 10 | > 10 | > 10 | > 10 | > 10 | 0 | 0 | 0 | 0 | 0.6
C=C(C)[C@@H]1CC[C@]2(C(=O)O)CC[C@]3(C)[C@H](CC[C@@H]4[C@@]5(C)CC[C@H](OC(=O)CC(C)(C)C(=O)O)C(C)(C)[C@@H]5CC[C@]43C)[C@@H]12 [bevirimat-dimeglumine] | 92 | 95.6 | 94.1 | 102 | 94.9 | 99.1 | 103 | 102 | 92.9 | 110 | 91.3 | 99.5 | 103 | 94.1 | 96.7 | 99.4 | 98.5 | 99.6 | 98.2 | 96.8 | 96.8 | 103 | 96.9 | 94.7 | 102 | > 10 | > 10 | > 10 | > 10 | > 10 | 0 | 0 | 0 | 0 | 0
COC(=O)c1cc(OC)c2c(c1-c1c(C(=O)OC)cc(OC)c3c1OCO3)OCO2 [bifendate] | 112 | 104 | 98.4 | 102 | 89.6 | 94.4 | 98.1 | 101 | 106 | 104 | 94.8 | 84 | 93.2 | 93.8 | 90.4 | 99.3 | 99.3 | 97.6 | 99.5 | 101 | 105 | 105 | 105 | 94.6 | 107 | > 10 | > 10 | > 10 | > 10 | > 10 | 0 | 0 | 0 | 0 | 0
CCNC(=O)CCC/C=C\C[C@@H]1[C@@H](/C=C/[C@@H](O)CCc2ccccc2)[C@H](O)C[C@@H]1O [bimatoprost] | 97.5 | 89.8 | 106 | 92.2 | 101 | 113 | 97.6 | 101 | 100 | 101 | 88.6 | 93 | 95.1 | 107 | 105 | 102 | 93.3 | 103 | 96.4 | 107 | 97.7 | 105 | 96.1 | 100 | 106 | > 10 | > 10 | > 10 | > 10 | > 10 | 0 | 0 | 0 | 0 | 0
CCN[C@H]1CN(CCCOC)S(=O)(=O)c2sc(S(N)(=O)=O)cc21 [brinzolamide] | 89.1 | 95.2 | 99.3 | 104 | 106 | 96.2 | 91.8 | 101 | 112 | 102 | 100 | 118 | 101 | 110 | 112 | 96.6 | 95.4 | 102 | 106 | 99.9 | 94.4 | 99.7 | 96.2 | 85.9 | 102 | > 10 | > 10 | > 10 | > 10 | > 10 | 0 | 0 | 0 | 0 | 0
